From US12187723B2 (BRISTOL-MYERS SQUIBB COMPANY, priority 2019, dated 2025)
Structures can show the parent of a compound that is named as a salt.

Columns and labels:
human TLR9 = molecular target: T1, human TLR9 (Homo sapiens, UniProt Q9NR96); test: TLR9 inhibition reporter assay (HEK-Blue SEAP); assay type: cell-based; details: HEK-Blue cells overexpressing human TLR9, ODN2006 5 nM, 22 hour incubation
T1 construct: host or cells: HEK-Blue cells
T1 sequence (Q9NR96 26-1032): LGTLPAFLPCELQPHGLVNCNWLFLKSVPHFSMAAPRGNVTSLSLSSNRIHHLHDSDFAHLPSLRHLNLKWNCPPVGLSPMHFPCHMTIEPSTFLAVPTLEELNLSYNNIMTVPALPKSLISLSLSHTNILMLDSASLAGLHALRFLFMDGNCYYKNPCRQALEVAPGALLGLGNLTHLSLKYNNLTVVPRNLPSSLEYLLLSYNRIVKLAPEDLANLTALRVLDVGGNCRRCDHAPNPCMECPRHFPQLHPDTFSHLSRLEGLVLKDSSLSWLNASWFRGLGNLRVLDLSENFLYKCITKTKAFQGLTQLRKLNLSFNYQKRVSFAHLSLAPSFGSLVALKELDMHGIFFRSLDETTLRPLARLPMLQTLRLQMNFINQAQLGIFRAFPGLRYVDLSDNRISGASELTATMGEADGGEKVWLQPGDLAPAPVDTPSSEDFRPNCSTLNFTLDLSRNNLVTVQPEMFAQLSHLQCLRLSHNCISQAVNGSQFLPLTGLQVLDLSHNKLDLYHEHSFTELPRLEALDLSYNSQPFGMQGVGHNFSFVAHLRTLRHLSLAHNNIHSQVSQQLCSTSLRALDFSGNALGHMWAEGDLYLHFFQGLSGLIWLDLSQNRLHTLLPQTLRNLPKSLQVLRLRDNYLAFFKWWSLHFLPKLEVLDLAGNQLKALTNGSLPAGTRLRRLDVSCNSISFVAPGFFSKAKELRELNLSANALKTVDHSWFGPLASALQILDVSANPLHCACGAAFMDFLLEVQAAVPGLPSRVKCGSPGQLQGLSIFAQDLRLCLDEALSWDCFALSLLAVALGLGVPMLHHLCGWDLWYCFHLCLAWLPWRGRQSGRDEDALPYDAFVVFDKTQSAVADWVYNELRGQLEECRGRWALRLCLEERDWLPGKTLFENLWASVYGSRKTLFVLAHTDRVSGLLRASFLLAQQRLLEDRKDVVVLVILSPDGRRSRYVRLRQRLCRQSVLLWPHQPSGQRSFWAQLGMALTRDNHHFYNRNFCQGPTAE
Summary of the method: (§1)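 HEK-Blue cells overexpressing human TLR7, TLR8 or TLR9 carry a SEAP reporter driven by NF-κB/AP-1 sites. Compounds (0.05 nM–50 μM) were preincubated 30 min at room temperature, then cells were stimulated with gardiquimod 7.5 μM (TLR7), R848 15.9 μM (TLR8) or ODN2006 5 nM (TLR9) for 22 h at 37 °C.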

human TLR8 = molecular target: T2, human TLR8 (Homo sapiens, UniProt Q9NR97); test: TLR8 inhibition reporter assay (HEK-Blue SEAP); assay type: cell-based; details: HEK-Blue cells overexpressing human TLR8, R848 15.9 μM, 22 hour incubation
T2 construct: host or cells: HEK-Blue cells
T2 sequence (Q9NR97 27-1041): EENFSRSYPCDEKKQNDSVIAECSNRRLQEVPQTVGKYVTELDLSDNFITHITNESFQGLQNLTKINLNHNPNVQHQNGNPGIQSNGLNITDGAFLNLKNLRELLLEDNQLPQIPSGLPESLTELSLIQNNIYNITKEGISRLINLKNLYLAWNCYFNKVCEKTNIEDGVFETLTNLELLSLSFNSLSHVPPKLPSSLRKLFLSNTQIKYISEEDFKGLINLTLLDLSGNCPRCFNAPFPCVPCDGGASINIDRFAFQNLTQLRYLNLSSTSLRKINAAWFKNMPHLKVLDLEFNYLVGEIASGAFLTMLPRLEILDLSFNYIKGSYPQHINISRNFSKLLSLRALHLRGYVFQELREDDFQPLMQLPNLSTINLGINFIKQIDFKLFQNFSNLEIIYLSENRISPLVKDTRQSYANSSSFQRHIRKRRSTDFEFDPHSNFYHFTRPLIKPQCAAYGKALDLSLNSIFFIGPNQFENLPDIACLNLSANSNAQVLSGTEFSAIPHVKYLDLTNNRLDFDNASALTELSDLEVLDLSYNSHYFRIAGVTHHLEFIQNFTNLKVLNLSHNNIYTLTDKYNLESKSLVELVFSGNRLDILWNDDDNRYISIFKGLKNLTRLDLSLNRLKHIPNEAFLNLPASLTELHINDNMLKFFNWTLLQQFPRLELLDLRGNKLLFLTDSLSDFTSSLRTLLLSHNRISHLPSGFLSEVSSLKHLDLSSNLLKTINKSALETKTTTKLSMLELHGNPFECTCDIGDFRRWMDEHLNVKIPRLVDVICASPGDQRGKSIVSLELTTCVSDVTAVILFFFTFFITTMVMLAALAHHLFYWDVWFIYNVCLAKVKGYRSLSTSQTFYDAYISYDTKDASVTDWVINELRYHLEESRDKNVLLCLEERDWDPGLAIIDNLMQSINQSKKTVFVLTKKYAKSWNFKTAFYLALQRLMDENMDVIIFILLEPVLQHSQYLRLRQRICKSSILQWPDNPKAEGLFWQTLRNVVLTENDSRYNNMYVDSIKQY
Summary of the method: as §1

IC50 (human TLR9)	IC50 (human TLR8)	SMILES
3.79 µM	0.00376 µM	Cc1c(-c2cc3[nH]c(=O)n(C4CCC(N5CC6(COC6)C5)CC4)c3cc2C(C)C)cn2ncnc2c1C (single isomer, unassigned) [Example 298]
2.64 µM	0.225 µM	COc1cc(-c2cc3[nH]c(=O)n(C4CCNCC4)c3cc2C)cn2ncnc12 [1 E, 5-(8-methoxy-[1,2,4]triazolo[1,5-a]pyridin-6-yl)-6-methyl-1-(piperidin-4-yl)-1H-benzo[d]imidazol-2(3H)-one, TFA]
5.45 µM	0.439 µM	Cc1cc2c(cc1-c1cc(C)c3ncnn3c1)[nH]c(=O)n2C1CCNCC1 [1 EA, 6-methyl-5-(8-methyl-[1,2,4]triazolo[1,5-a]pyridin-6-yl)-1-(piperidin-4-yl)-1,3-dihydro-2H-benzo[d]imidazol-2-one]
0.347 µM	1.03 µM	Cc1cc(-c2ccc3c(c2)[nH]c(=O)n3C2CCNCC2)cn2ncnc12 [1 EB, 5-(8-methyl-[1,2,4]triazolo[1,5-a]pyridin-6-yl)-1-(piperidin-4-yl)-1,3-dihydro-2H-benzo[d]imidazol-2-one]
0.381 µM	0.0225 µM	Cc1cc2c(cc1-c1cc(C)c3ncnn3c1)[nH]c(=O)n2C1CCCNC1 (stereo not drawn) [1 EC, 6-methyl-5-(8-methyl-[1,2,4]triazolo[1,5-a]pyridin-6-yl)-1-(piperidin-3-yl)-1,3-dihydro-2H-benzo[d]imidazol-2-one]
0.524 µM	0.0381 µM	Cc1cc2c(cc1-c1cc(C)c3ncnn3c1)[nH]c(=O)n2[C@@H]1CCCNC1 [1 ED, (R)-6-methyl-5-(8-methyl-[1,2,4]triazolo[1,5-a]pyridin-6-yl)-1-(piperidin-3-yl)-1,3-dihydro-2H-benzo[d]imidazol-2-one]
2.16 µM	0.0318 µM	Cc1cc2c(cc1-c1cc(C)c3ncnn3c1)[nH]c(=O)n2[C@H]1CC[C@@H](N)CC1 [1 EE]
2.31 µM	0.0332 µM	Cc1cc2c(cc1-c1cc(C)c3ncnn3c1)[nH]c(=O)n2[C@H]1CC[C@H](N)CC1 [1 EF, 1-((1r,4r)-4-aminocyclohexyl)-6-methyl-5-(8-methyl-[1,2,4]triazolo[1,5-a]pyridin-6-yl)-1,3-dihydro-2H-benzo[d]imidazol-2-one]
3.65 µM	0.0326 µM	COc1cc(-c2cc3[nH]c(=O)n([C@H]4CC[C@@H](N)CC4)c3cc2C)cn2ncnc12 [1 EG, 1-((1s,4s)-4-aminocyclohexyl)-5-(8-methoxy-[1,2,4]triazolo[1,5-a]pyridin-6-yl)-6-methyl-1,3-dihydro-2H-benzo[d]imidazol-2-one]
0.809 µM	0.0496 µM	COc1cc(-c2cc3[nH]c(=O)n([C@@H]4CCCNC4)c3cc2C)cn2ncnc12 [1 EH, (R)-5-(8-methoxy-[1,2,4]triazolo[1,5-a]pyridin-6-yl)-6-methyl-1-(piperidin-3-yl)-1,3-dihydro-2H-benzo[d]imidazol-2-one]
1.18 µM	> 3.13 µM	COc1cc(-c2ccc3c(c2)[nH]c(=O)n3C2CCNCC2)cn2ncnc12 [1 EI, 5-(8-methoxy-[1,2,4]triazolo[1,5-a]pyridin-6-yl)-1-(piperidin-4-yl)-1,3-dihydro-2H-benzo[d]imidazol-2-one]
1.02 µM	0.433 µM	Cc1cc(-c2cc(C)c3ncnn3c2)cc2[nH]c(=O)n(C3CCNCC3)c12 [106 F, 7-methyl-5-(8-methyl-[1,2,4]triazolo[1,5-a]pyridin-6-yl)-1-(piperidin-4-yl)-1,3-dihydro-2H-benzo[d]imidazol-2-one]
2.71 µM	0.0148 µM	COc1cc(-c2cc3[nH]c(=O)n([C@@H]4CCCNC4)c3cc2C(F)(F)F)cn2ncnc12 [110 F, (R)-5-(8-methoxy-[1,2,4]triazolo[1,5-a]pyridin-6-yl)-1-(piperidin-3-yl)-6-(trifluoromethyl)-1,3-dihydro-2H-benzo[d]imidazol-2-one]
2.5 µM	0.00699 µM	CCc1cc2c(cc1-c1cc(OC)c3ncnn3c1)[nH]c(=O)n2[C@@H]1CCCNC1 [119 FB, (R)-6-ethyl-5-(8-methoxy-[1,2,4]triazolo[1,5-a]pyridin-6-yl)-1-(piperidin-3-yl)-1,3-dihydro-2H-benzo[d]imidazol-2-one]
11.7 µM	0.00717 µM	Cc1c(-c2cc3[nH]c(=O)n([C@@H]4CCCNC4)c3cc2C(C)C)cn2ncnc2c1C [119 FC, (R)-5-(7,8-dimethyl-[1,2,4]triazolo[1,5-a]pyridin-6-yl)-6-isopropyl-1-(piperidin-3-yl)-1,3-dihydro-2H-benzo[d]imidazol-2-one]
> 50 µM	0.0808 µM	Cc1cc2c(cc1-c1cc(C)c3ncnn3c1)[nH]c(=O)n2[C@@H]1CCCN(C2COC2)C1 [Example 18, (R)-6-methyl-5-(8-methyl-[1,2,4]triazolo[1,5-a]pyridin-6-yl)-1-(1-(oxetan-3-yl)piperidin-3-yl)-1,3-dihydro-2H-benzo[d]imidazol-2-one]
16.4 µM	0.032 µM	Cc1cc2c(cc1-c1cc(C)c3ncnn3c1)[nH]c(=O)n2[C@H]1CC[C@@H](N(C)C)CC1 [Example 19, 1-((1s,4s)-4-(dimethylamino)cyclohexyl)-6-methyl-5-(8-methyl-[1,2,4]triazolo[1,5-a]pyridin-6-yl)-1,3-dihydro-2H-benzo[d]imidazol-2-one]
3.35 µM	0.0144 µM	CCN(CC)[C@H]1CC[C@@H](n2c(=O)[nH]c3cc(-c4cc(C)c5ncnn5c4)c(C)cc32)CC1 [Example 20, 1-((1s,4s)-4-(diethylamino)cyclohexyl)-6-methyl-5-(8-methyl-[1,2,4]triazolo[1,5-a]pyridin-6-yl)-1,3-dihydro-2H-benzo[d]imidazol-2-one]
7.06 µM	0.0133 µM	CCN[C@H]1CC[C@@H](n2c(=O)[nH]c3cc(-c4cc(C)c5ncnn5c4)c(C)cc32)CC1 [Example 21, 1-((1s,4s)-4-(ethylamino)cyclohexyl)-6-methyl-5-(8-methyl-[1,2,4]triazolo[1,5-a]pyridin-6-yl)-1,3-dihydro-2H-benzo[d]imidazol-2-one]
4.63 µM	0.00408 µM	Cc1cc2c(cc1-c1cc(C)c3ncnn3c1)[nH]c(=O)n2[C@H]1CC[C@@H](NC(C)C)CC1 [Example 22, 1-((1s,4s)-4-(isopropylamino)cyclohexyl)-6-methyl-5-(8-methyl-[1,2,4]triazolo[1,5-a]pyridin-6-yl)-1,3-dihydro-2H-benzo[d]imidazol-2-one]
5.66 µM	0.0309 µM	Cc1cc2c(cc1-c1cc(C)c3ncnn3c1)[nH]c(=O)n2[C@H]1CC[C@H](N(C)C)CC1 [Example 23, 1-((1r,4r)-4-(dimethylamino)cyclohexyl)-6-methyl-5-(8-methyl-[1,2,4]triazolo[1,5-a]pyridin-6-yl)-1,3-dihydro-2H-benzo[d]imidazol-2-one]
